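Growth conditions: 96-well plates. Treatment: test compound, 48 hours, 5 concentrations. Analysis: linear interpolation between bracketing concentrations; unreached endpoints set to highest concentration. TGI is the concentration that stops growth completely.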
Key:
Experiment in all cases: NCI-60 cell line screen, 48 h
SK-MEL-5 melanoma = system: SK-MEL-5 melanoma
SF-295 CNS = system: SF-295 CNS
MALME-3M melanoma = system: MALME-3M melanoma
HS 578T breast = system: HS 578T breast
A549 NSCLC = system: A549 NSCLC
HCT-15 colon = system: HCT-15 colon
UACC-257 melanoma = system: UACC-257 melanoma
OVCAR-8 ovarian = system: OVCAR-8 ovarian
IGROV1 ovarian = system: IGROV1 ovarian
SK-OV-3 ovarian = system: SK-OV-3 ovarian
786-0 renal = system: 786-0 renal
OVCAR-5 ovarian = system: OVCAR-5 ovarian
RXF 393 renal = system: RXF 393 renal
ACHN renal = system: ACHN renal
HT29 colon = system: HT29 colon
UACC-62 melanoma = system: UACC-62 melanoma
HCC-2998 colon = system: HCC-2998 colon
HL-60(TB) leukemia = system: HL-60(TB) leukemia
KM12 colon = system: KM12 colon
MDA-N = system: MDA-N

SMILES | TGI (SK-MEL-5 melanoma) [µM] | TGI (SF-295 CNS) [µM] | TGI (MALME-3M melanoma) [µM] | TGI (HS 578T breast) [µM] | TGI (A549 NSCLC) [µM] | TGI (HCT-15 colon) [µM] | TGI (UACC-257 melanoma) [µM] | TGI (OVCAR-8 ovarian) [µM] | TGI (IGROV1 ovarian) [µM] | TGI (SK-OV-3 ovarian) [µM] | TGI (786-0 renal) [µM] | TGI (OVCAR-5 ovarian) [µM] | TGI (RXF 393 renal) [µM] | TGI (ACHN renal) [µM] | TGI (HT29 colon) [µM] | TGI (UACC-62 melanoma) [µM] | TGI (HCC-2998 colon) [µM] | TGI (HL-60(TB) leukemia) [µM] | TGI (KM12 colon) [µM] | TGI (MDA-N) [µM]
O=C(O)c1c2c(cc3c1CC(Cc1ccccc1)C3=O)CCC2 (stereo not given) | > 100 | > 100 | > 100 | > 100 | 38 | > 100 | > 100 | > 100 | > 100 | > 100 | > 100 | > 100 | > 100 | > 100 | > 100 | > 100 | > 100 | 42.3 | > 100 | > 100
CS(=O)(=O)C(C#N)c1nc2ccccc2nc1Cl (stereo not given) | > 27.1 | > 100 | > 100 | > 100 | > 100 | > 100 | > 100 | > 100 | > 100 | > 100 | > 100 | > 100 | > 100 | > 100 | > 100 | > 100 | > 100 | > 100 | > 58.2 | > 100
COc1cc2c(cc1OCCCCCCCCCCN1C(=O)c3cccc4cccc(c34)C1=O)N=C[C@@H]1CCCN1C2=O | 22.8 | 27.4 | 34 | 75.3 | 82.4 | 16.9 | 37.3 | 24.7 | 18.4 | 19.8 | 55.9 | 61.2 | 10.1 | 30 | 29.3 | 24.8 | 27.5 | 43.2 | 50.2 | 30
CS(=O)(=O)Nc1ccc2ccccc2c1-c1c(NS(C)(=O)=O)ccc2ccccc12 | > 25 | > 25 | > 25 | > 25 | > 25 | > 25 | > 25 | > 25 | > 25 | > 25 | > 25 | > 25 | > 25 | > 25 | > 25 | > 25 | > 25 | > 25 | > 25 | > 25
CC1(C)N/C(=C\[N+](=O)[O-])C(C)(C)N1O | > 10 | > 10 | > 10 | > 10 | > 10 | > 10 | > 10 | > 10 | > 10 | > 10 | > 10 | > 10 | > 10 | > 10 | > 10 | > 10 | > 10 | > 10 | > 10 | > 10
